Values of other authors as cited in patent publication US20240261224A1, “FORMULATION OF A PAN-JAK INHIBITOR” (KINASET THERAPEUTICS, INC., priority 2022, published 2024).
Read-outs that look alike come from different tables or passages of the source. Marks after values point to notes of the source that are not given here.

What was measured:
[1] = test system: fractional exhaled nitric oxide (FeNO); settings: cited from earlier work
[2] = marketed DPI; cited from earlier work

Row | SMILES | Mean placebo-corrected FeNO reduction ([1]; 1.0 mg QD, 1 capsule per dose, an increase in FeNO was observed) [%*] | Mean placebo-corrected FeNO reduction ([1]; 4.0 mg QD, 4 capsules per dose) [%] | Mean placebo-corrected FeNO reduction ([1]; 15.0 mg BID, 30 capsules per dose) [%] | Mean placebo-corrected FeNO reduction ([1]; 15.0 mg QD, 15 capsules per dose) [%] | MMAD (μm) [2]
1 | CN(CCC#N)C1CCN(C(=O)Cn2cc(NC(=O)c3cnn4cccnc34)c(-c3cc(Cl)ccc3OC(F)F)n2)CC1 [GDC-0214] | 0.4 | −6.5 | −42 | −23 | 
2 | CCC(=O)O[C@]1(C(=O)SCF)[C@H](C)C[C@H]2[C@@H]3C[C@H](F)C4=CC(=O)C=C[C@]4(C)[C@@]3(F)[C@@H](O)C[C@@]21C [fluticasone propionate] |  |  |  |  | 6-7 μm
